# Reference: PMC8140105 (Scientific Reports, 2021)
# What was measured:
# [1] = Capillary depletion; type: in vivo, ICR-CD-1 mice; conditions: 125I-labelled, i.v., mice, 10 min after injection, n = 2
# Description: Briefly, 0.1 µmol of the lyophilized peptide was dissolved in 100 µL of phosphate buffer (pH 7.4, 25 mM). A Iodo-Gen coated tube (Thermo Scientific, Merelbeke, Belgium) was first of all rinsed with 1 mL of phosphate buffer. Subsequently, 50 µL of sodium iodide solution (1.1 µmol/mL) and 1 mCi of Na^125I solution (Perking Elmer, Zaventem, Belgium) were transferred into this Iodo-Gen coated tube. The oxidation reaction was allowed to proceed for six minutes at room temperature, after which the iodonium solution was transferred to 50 µL of peptide solution (1 mM). The iodination reaction of the peptide was allowed to proceed for another six minutes at room temperature. Finally, the iodinated peptide was purified using a silver filter (Thermo Scientific, Merelbeke, Belgium).
# We performed capillary depletion to determine whether the peptides, taken up by the brain, completely crossed the capillary wall into the tissue rather than just being trapped by and in the endothelium. […] Subsequently, the brain was collected, weighed and the radioactivity measured in the gamma counter for 5 min. […] The resulting solution was weighed and centrifuged in a swinging bucket rotor at 5400g for 30 min at 4 °C, after measuring the radioactivity in the gamma counter. Pellet (capillaries) and supernatant (parenchyma and fat tissues) were also collected, weighed and measured in a gamma counter. […]
# [2] = Chemical and protease-inactivated homogenate stability; type: in vitro ADME, ICR-CD-1 mice; conditions: for Remaining amount of PapRIV: 1 hour at 37°C
# Description: The metabolization rate of the peptide varied between different biological matrices such as serum, brain tissue, liver tissue, kidney tissue and faeces. […] Different metabolites of the peptide could be identified. To exclude the possibility of non-enzymatic degradation, the chemical and protease-inactivated homogenate (by pre-heating the homogenate for 5 min at 95 °C) stability of the peptide was determined. Except for kidney tissue, PapRIV remained stable in protease-inactivated homogenates, pointing an enzymatic degradation in serum, liver, brain and faeces (Supplementary Table S1). In protease-inactivated kidney homogenate, approximately 45% of peptide loss after 60 min can be explained by protein interaction with some kidney specific proteins. In serum, six different metabolites were formed. The MS-spectra of the different metabolites formed and the metabolic profiles in different tissues are given in supplementary information (Supplementary Figs. S6, S7). DLPFEH is the main metabolite which is formed in all matrices, metabolization of the native peptide to this metabolite is the main contributor of the low half-lives observed in kidney tissue and serum (Supplementary Fig. S5). Also in faeces, the matrix in which PapRIV is produced by gut bacteria, metabolization to DLPFEH occurred.
# Supplementary method S3: Tissue homogenate preparation
# Preparation of Krebs-Henseleit buffer (pH 7.4) (KH-buffer)
# The powdered medium was dissolved in 900 mL water while stirring. To this solution, 0.3790 g CaCl2×2H2O and 2.098 g NaHCO3 was subsequently added while stirring. NaOH or HCl was used to adjust to pH 7.4. This solution was then further diluted to 1000 mL using ultrapure […]
# Preparation of tissue homogenates
# - The liver (n = 1), kidneys (n = 6), brains (n = 3), colons (n = 4) and faeces (0.196 g) of ICR-CD-1 mice were collected.
# - After cleaning and rinsing the tissues using ice-cold KH buffer, the tissues were cut in little pieces and transferred into a 50 mL tube to which 36 mL ice-cold KH buffer was added.
# - The tissues were then homogenized with at tissue homogenizer.
# - After the larger particles were allowed to settle for about 30 minutes at 5°C, approximately 25 mL of the middle layer was transferred into a 50 mL Falcon tube using a plastic pipette.
# - After shaking the homogenates, the homogenates were dispensed into 2 mL Eppendorf tubes, and stored at -35°C until use.
# - The protein content of the homogenates were determined using the Pierce Modified Lowry […]
# - Just before use, the homogenates were diluted to a protein concentration of 0.6 mg/mL (i.e.
# 300 µg / 500 µL) with KH buffer.
# - Into a 1.5 ml Protein LoBind tube, 900 µl of serum/tissue extract (500 µl of homogenate/serum and 400 µl of KH buffer, pH 7.4) was transferred.
# - After temperature-equilibration at 37°C for 15 min while shaking at 750 rpm, 100 µl of peptide solution (0.1 mg/mL) was added followed by continued incubation at 37°C (while shaking), with […] aliquots taken after 0, 5, 10, 30 and 60 minutes.
# - The aliquots were immediately transferred into 500 µl Protein LoBind Eppendorf tubes containing 100 µl of 1% V/V trifluoroacetic acid solution in water, heated for 5 minutes at 95°C, and cooled for 30 minutes in an ice-bath.
# - The samples were then centrifuged at 16,000 g for 5 minutes at 5°C.
# - The supernatants was then analyzed by UPLC-UV/MS.
# Supplementary table S1: Chemical and protease-inactivated homogenate stability of PapRIV […]
# Matrix Remaining amount of PapRIV (%)
substance,measurement,setting,value
"SDLPFEH [PapRIV, heptapeptide (SDLPFEH) quorum sensing peptide originating from the Bacillus cereus group; synthetic, purchased from GL Biochem]",Capillary fraction,[1],13.08%
same,Parenchymal fraction,[1],86.92%
same,Remaining amount of PapRIV,[2]; Inactivated brain homogenate (pre-heated 5 min at 95 °C),101.0%
same,Remaining amount of PapRIV,[2]; Inactivated colon homogenate (pre-heated 5 min at 95 °C),99.2%
same,Remaining amount of PapRIV,[2]; Inactivated faeces homogenate (pre-heated 5 min at 95 °C),101.4%
same,Remaining amount of PapRIV,[2]; Inactivated kidney homogenate (pre-heated 5 min at 95 °C),53.8%
same,Remaining amount of PapRIV,[2]; Inactivated liver homogenate (pre-heated 5 min at 95 °C),101.6%
same,Remaining amount of PapRIV,[2]; Inactivated serum (pre-heated 5 min at 95 °C),99.0%
same,Remaining amount of PapRIV,"[2]; KH-buffer (Krebs-Henseleit, pH 7.4), chemical stability",99.8%
same,peptide loss,"[2]; protease-inactivated kidney homogenate, after 60 min, explained by protein interaction",approximately 45%
